Results: patent US4634709A, “Platelet aggregation inhibitory agents and intermediates therefor” (Research Corporation, priority 1984, dated 1987)
Structures can show the parent of a compound that is named as a salt. Where two headings read alike, the source gives them in different places.

Assays:
[1] = test system: human blood platelet aggregation, ADP-induced; assay: Inhibition of ADP-induced human blood platelet aggregation (aggregometry, platelet-rich plasma); assay type: cell-based; settings: for inhibition at 50 µM: 50 μM evaluant, % reduction in maximal aggregation intensity vs control; for inhibition at 100 µM: read-out: % inhibition of aggregation, ADP-induced; for inhibition at 500 µM: 500 μM evaluant
Description: (§1) Adenosine diphosphate (ADP) used to induce platelet aggregation was employed as the sodium salt. A 10 mM stock solution was prepared fresh before each use in modified Tyrode's buffer and working dilutions were prepared with modified Tyrode's buffer immediately prior to use. The buffer contained NaCl (137.00 mM), KCl (2.70 mM), NaHCO3 (11.90 mM), NaH2 PO4.H2 O (0.36 mM) and glucose (5.60 mM) in redistilled water. Adjustment to pH 7.4 was effected by addition of 1N HCl. A solution of highly purified human α-thrombin (10,624 units/ml) wss stored at -70° C. in 10 μl aliquots. The latter were diluted with modified Tyrode's buffer to a concentration of 10.0 units/ml immediately prior to use.
(§2) Venous blood for the examples set forth below was collected in plastic syringes from healthy male volunteers (aged 21-30 years) who had fasted overnight and had abstained from all medications, alcohol, tobacco and caffeine for a period of at least one week prior to donations. In experiments employing ADP as the aggregation-inducing agent, the blood was transferred into siliconized centrifuge tubes containing 3.2% sodium citrate (blood/citrate ratio 8:1); in thrombin-induced aggregations, 3.8% sodium citrate (blood/citrate ratio 9:1) was used. The cirtrated whole blood was centrifuged at 120×g for 15 minutes at 23° C., yielding platelet-rich plasma (PRP); platelet-poor plasma (PPP) was obtained by centrifugation of citrated whole blood at 1,100×g for […] at 23° C. The platelet count of PRP was determined and adjusted to a final count of 300,000 platelets per mm^3 by dilution with autologous PPP. (Occasionally, blood from a given donor yielded PRP with a count lower than the stipulated figure; however, this was usually greater than 285,000, and never less than 250,000 platelets per mm^3.) The plasma so obtained was transferred in 1.2-ml aliquots to siliconized glass tubes, by means of a siliconized Pasteur pipet. In order to maintain plasma pH in the appropriate range, the air in the tubes was displaced gently (1 minute) with a 5% CO2 -95% air (v/v) mixture and the tubes sealed with Parafilm according to the method of Han et al, Br. J. Haematol. Vol. 26, pages 373-389 (1974). The plasma was maintained at 37° C. in a water bath until used in the aggregation experiments.
Assays of platelet aggregation was performed at least in duplicate, using plasma acquired from different donors, employing a method developed by Quintana et al (Quintana et al, Thromb. Res., Vol. 22, pages 665-680 (1981); Quintana et al, Thromb. Res., Vol. 20, pages 405-415 (1980) (cf. Born, Nature, Vol. 194, pages 927-929 (1962) and Mustard et al, J. Lab. Clin. Med., Vol. 64, pages 548-559 (1964)).
Initially, in each experiment, 0.45-ml aliquots of PRP were placed in siliconized cuvettes and stirred (1,100 rpm) in the aggregometer at 37° C. to ascertain the absence of spontaneous aggregation. Appropriate ADP solutions (50 μl) were subsequently injected using a Hamilton microliter syringe to determine the minimal concentration eliciting maximal biphasic aggregation. This ranged from 2 μM to 8 μM (cf. Quintana et al, Thromb. Res., Vol. 22, pages 665-680 (1981); Quintana et al, Thromb. Res., Vol. 20, pages 405-415 (1980)). In each case, the concentration of ADP so determined was used in eliciting aggregation throughout each specific set of aggregometric evaluations. In all thrombin-induced aggregation experiments the same stimulus was applied; this constituted injection of 50 μl of the solution containing 10.0 units of α-thrombin/ml (affording a final concentration of 1.0 unit of α-thrombin/ml PRP).
0.5 μl of a solution of the evaluant compound in redistilled 95% ethanol was injected into a stirred (1,100 rpm) 0.45-ml aliquot of plasma in a siliconized cuvette in the aggregometer-well (37° C.). After 15 seconds, the cuvette was transferred to an incubator (also at 37° C.) and the contents held at this temperature, without stirring, until 2 minutes post-injection. […]

[2] = test system: human blood platelet aggregation, thrombin-induced; assay: Inhibition of thrombin-induced human blood platelet aggregation (aggregometry, platelet-rich plasma); assay type: cell-based; settings: for % inhibition of aggregation, thrombin-induced: 50 μM evaluant, human PRP, 1.0 unit α-thrombin/ml PRP
Description: as §1
as §2, with “experiments. […]” for “experiments.”
Initially, in each experiment, 0.45-ml aliquots of PRP were placed in siliconized cuvettes and stirred (1,100 rpm) in the aggregometer at 37° C. to ascertain the absence of spontaneous aggregation. […] In each case, the concentration of ADP so determined was used in eliciting aggregation throughout each specific set of aggregometric evaluations. […]

patient's platelets = settings: Walder et al; cited from earlier work
[3] = literature; cited from earlier work
[4] = test system: platelet aggregation, ADP-induced; settings: cited from earlier work
[5] = Platelet, 100 μM evaluant, human PRP

## c1ccc2c(c1)CCN(Cc1ccc(CN3CCc4ccccc4C3)cc1)C2 [Example 2, α,α'-Bis(1,2,3,4-tetrahydroisoquinolino)-p-xylene Dihydrobromide]
[1]; Platelet, human PRP
  inhibition at 50 µM: 0%
[1]; Table 1 footnote 5
  ADP-induced platelet aggregation inhibition, in words: inactive

## Oc1ccc2c(c1)CCCN2Cc1ccc(CN2CCCc3cc(O)ccc32)cc1 [Example 5, α,α'-Bis(6-hydroxy-1,2,3,4-tetrahydroquinolino)-p-xylene Dihydrobromide]
[1]; Platelet, human PRP
  inhibition at 50 µM: 21.5%

## Oc1ccc2c(c1)CCCN2CCCCCCCCCCN1CCCc2cc(O)ccc21 [Example 7, 1,10-Bis(6-hydroxy-1,2,3,4-tetrahydroquinolino)decane Dihydriodide]
[1]; Platelet, human PRP
  inhibition at 50 µM: 25.9%

## CCCCCCCCCCN1CCCc2cc(O)ccc21 [Example 9, 1-Decyl-6-hydroxy-1,2,3,4-tetrahydroquinoline Hydriodide]
[1]; Platelet, human PRP
  inhibition at 50 µM: 33%

## CCCCCCN1CCCc2cc(O)ccc21 [Example 11, 1-Hexyl-6-hydroxy-1,2,3,4-tetrahydroquinoline Hydriodide]
[1]; Platelet, human PRP
  inhibition at 50 µM: 37.2%
[1]; [5]
  inhibition at 100 µM: 45.9%

## CCCCCCCCCCCCCCN1CCCc2cc(O)ccc21 [Example 12, 1-Tetradecyl-6-hydroxy-1,2,3,4-tetrahydroquinoline Hydriodide]
[1]; Platelet, human PRP
  inhibition at 50 µM: 0%

## CCCCN(CCCC)C(=O)c1cccnc1 [Example 13, N,N--Dibutylnicotinamide]
[1]; [5]
  inhibition at 100 µM: 0%

## CCCCN(CCCC)C(=O)C1CCCN(Cc2ccc(CN3CCCC(C(=O)N(CCCC)CCCC)C3)cc2)C1 (stereo not drawn) [Example 14, α,α'-Bis[3-(N,N--dibutylcarbamoyl)piperidino]-p-xylene Dihydrobromide]
[1]; Platelet, human PRP
  inhibition at 50 µM: 49.7%

## CCCCCCCCCCN(CCCCCCCCCC)C(=O)C1CCCN(Cc2ccc(CN3CCCC(C(=O)N(CCCCCCCCCC)CCCCCCCCCC)C3)cc2)C1 (stereo not drawn) [Example 16, α,α'-Bis[3-(N,N--didecylcarbamoyl)piperidino]-p-xylene Dihydrobromide]
[1]; Platelet, human PRP
  inhibition at 50 µM: 0%

## CCCCCCCCCCNC(=O)C1CCCN(Cc2ccc(CN3CCCC(C(=O)NCCCCCCCCCC)C3)cc2)C1 (stereo not drawn) [Example 19, α,α'-Bis[3-(N--decylcarbamoyl)piperidino]-p-xylene Dihydrobromide]
[1]; Platelet, human PRP
  inhibition at 50 µM: 0%

## CCCCCCCCN(C)C(=O)c1cccnc1 [Example 20, N--Methyl-N--octylnicotinamide]
[1]; [5]
  inhibition at 100 µM: 12.1%

## CCCCCCCCN(C)C(=O)C1CCCNC1 (stereo not shown) [Example 21, N--Methyl-N--octylnipecotamide]
[1]; [5]
  inhibition at 100 µM: 49.9%

## CCCCCCCCN(C)C(=O)C1CCCN(C)C1 (stereo not shown) [Example 22, 1-Methyl-3-(N--methyl-N--octylcarbamoyl)piperidine Hydriodide]
[1]; [5]
  inhibition at 100 µM: 33.1%

## CCCCN(CCCC)C(=O)C1CCCN(C)C1 (stereo not shown) [Example 23, 1-Methyl-3-(N,N--dibutylcarbamoyl)piperidine Hydriodide]
[1]; [5]
  inhibition at 100 µM: 11.8%

## CCCCCCCCCCNC(=O)C1CCCN(C)C1 (stereo not shown) [Example 25, 1-Methyl-3-(N--decylcarbamoyl)piperidine Hydriodide]
[1]; [5]
  inhibition at 100 µM: 45.6%

## CN1CCCC(C(=O)NCCCCCCCCCCNC(=O)C2CCCN(C)C2)C1 (stereo not shown) [Example 28, 1,10-Bis[N--(1-methylnipecotoyl)amino]decane Dihydriodide]
[1]; Platelet, human PRP
  inhibition at 50 µM: 30.9%

## CN1CCCC(C(=O)NCCCCCCNC(=O)C2CCCN(C)C2)C1 (stereo not shown) [Example 31, 1,6-Bis[N--(1-methylnipecotoyl)amino]hexane Dihydriodide]
[1]; Platelet, human PRP
  inhibition at 500 µM: 17%

## C[N+]1(CCCCCCCCCC[N+]2(C)CCCCC2)CCCCC1 [Example 33, 1,10-Bis(N--methylpiperidinium)decane Diiodide]
[1]; Homo sapiens, Platelet
  inhibition at 100 µM: 0%

## O=C(C1CCCNC1)N1CCN(C(=O)C2CCCNC2)CC1 (stereo not shown) [Example 35, N,N'--Bis(nipecotoyl)piperazine Dihydrobromide]
[1]; Platelet, human PRP
  inhibition at 500 µM: 48.9%

## CCCCCCCCCCN1CCCC(C(=O)N2CCN(C(=O)C3CCCN(CCCCCCCCCC)C3)CC2)C1 (stereo not shown) [Example 37, N,N'--Bis(1-decylnipecotoyl)piperazine Dihydriodide]
[1]; Platelet, 10 μM evaluant, human PRP
  inhibition at 10 µM: 48.3%
[1]; Platelet, human PRP
  inhibition at 50 µM: 93.8%
[2]
  % inhibition of aggregation, thrombin-induced: 88.2%

## CN(CCN(C)C(=O)C1CCCNC1)C(=O)C1CCCNC1 (stereo not shown) [Example 39, 1,2-Bis(N-nipecotoyl-N-methylamino)ethane dihydrobromide]
[1]; Platelet, human PRP
  inhibition at 500 µM: 46.3%

## CCCCCCCCCCN1CCCC(C(=O)N(C)CCN(C)C(=O)C2CCCN(CCCCCCCCCC)C2)C1 (stereo not shown) [Example 40, 1,2-Bis[N--(1-decylnipecotoyl)-N--methylamino]ethane Dihydriodide]
[1]; Platelet, human PRP
  inhibition at 50 µM: 82.6%

## CCCCCCN1CCCC(C(=O)N(C)CCN(C)C(=O)C2CCCN(CCCCCC)C2)C1 (stereo not shown) [Example 41, 1,2-Bis[N--(1-hexylnipecotoyl)-N--methylamino]ethane Dihydriodide]
[1]; Platelet, human PRP
  inhibition at 50 µM: 71.6%

## CCCCCCCCCCN1CCCC(C(=O)N(C)CCCCCCN(C)C(=O)C2CCCN(CCCCCCCCCC)C2)C1 (stereo not shown) [Example 42, 1,6-Bis[N--(1-decylnipecotoyl)-N--methylamino]hexane Dihydriodide]
[1]; Platelet, human PRP
  inhibition at 50 µM: 85.6%
[2]
  % inhibition of aggregation, thrombin-induced: 88.3%

## CCCCCCCCCCN1CCCC(C(=O)N(CCCC)CCCCCCN(CCCC)C(=O)C2CCCN(CCCCCCCCCC)C2)C1 (stereo not shown) [Example 43, 1,6-Bis[N--(1-decylnipecotoyl)-N--butylamino]hexane Dihydriodide]
[1]; Platelet, human PRP
  inhibition at 50 µM: 38.6%

## CCCCCCN1CCCC(C(=O)N(CCCC)CCCCCCN(CCCC)C(=O)C2CCCN(CCCCCC)C2)C1 (stereo not shown) [Example 44, 1,6-Bis[N--(1-hexylnipecotoyl)-N--butylamino]hexane Dihydriodide]
[1]; Platelet, human PRP
  inhibition at 50 µM: 72.4%

## CC(=O)Oc1ccccc1C(=O)O [aspirin, reference compound]
patient's platelets
  effect on patient's platelets: incapacitate the patient's platelets for the rest of their life span
[1]; Platelet, human PRP
  inhibition at 50 µM: 24%
[2]
  % inhibition of aggregation, thrombin-induced: 9%
[3]
  deleterious / adverse effects: severe enough to counsel against its use by survivors of myocardial infarction

## CN(C)CCCN1c2ccccc2Sc2ccc(Cl)cc21 [chloropromazine, reference compound]
[1]; in words
  effectiveness in ADP-induced aggregation compared with the piperidine derivatives: considerably less effective
[2]; in words, FIG. 2
  effectiveness in thrombin-induced aggregation compared with the piperidine derivatives: much less effective

## OCCN(CCO)c1nc(N2CCCCC2)c2nc(N(CCO)CCO)nc(N3CCCCC3)c2n1 [dipyridamole]
[4]; 250 μM, Cucuiani et al
  inhibition in ADP-induced aggregation: 10%

## O=C(O)C1CCCNC1 (stereo not shown) [nipecotic acid, Piperidine-3-carboxylic acid]
[3]
  deleterious / adverse effects: has not been discerned to have deleterious effects

## O=C1C(CC[S+]([O-])c2ccccc2)C(=O)N(c2ccccc2)N1c1ccccc1 (stereo not shown) [sulfinpyrazone]
[4]; 2,470 μM, Packham et al
  inhibition in ADP-induced aggregation: 0%
